Measurements: US7691875B2, “Imidazopyridine compounds, processes for their preparation and therapeutic uses thereof” (AstraZeneca AB, priority 2003, dated 2010)
≈ marks a conversion by molar mass, not a printed value.

Legend:
[1] = Solubility in Fasted State Simulated Intestinal Fluid (FaSSIF); type: physicochemical; details: thermodynamic from solid, FaSSIF pH 6.5, 37° C., measured after 24 hours
Experimental: Solubility in Fasted State Simulated Intestinal Fluid (FaSSIF)
The method describes a procedure to measure solubility of solid material in PaSSIF (Fasted State Simulated Intestinal Fluid). The FaSSIF solution is an isotonic phosphate buffer where pH is adjusted to 6.5 to reflect pH in the jejunum. Taurocholic acid and lecithin is added to a concentration of 3 mmol/l and 0.75 mmol/l respectively.
1 mg of solid material, i.e. of the compound of invention, is added to 1 ml FaSSIF solution and equilibrated at 37° C. Samples are withdrawn after 1 and 24 hours. The samples are transferred to eppendorf tubes and spun at 10000 G and 37° C. for 10 minutes. A suitable volume of the supernatant is removed and diluted to a suitable concentration. The concentrations of the compounds in the samples are analysed with LC/UV/MS.

H+,K+-ATPase = H+,K+-ATPase (Homo sapiens, UniProt P20648); assay: Determination of H+,K+-ATPase activity (membrane vesicles, phosphate release); type: biochemical; details: 15 min, 37° C., pH 7.4, 10 mM KCl, 2 mM ATP
Sequence of H+,K+-ATPase (P20648 whole entry): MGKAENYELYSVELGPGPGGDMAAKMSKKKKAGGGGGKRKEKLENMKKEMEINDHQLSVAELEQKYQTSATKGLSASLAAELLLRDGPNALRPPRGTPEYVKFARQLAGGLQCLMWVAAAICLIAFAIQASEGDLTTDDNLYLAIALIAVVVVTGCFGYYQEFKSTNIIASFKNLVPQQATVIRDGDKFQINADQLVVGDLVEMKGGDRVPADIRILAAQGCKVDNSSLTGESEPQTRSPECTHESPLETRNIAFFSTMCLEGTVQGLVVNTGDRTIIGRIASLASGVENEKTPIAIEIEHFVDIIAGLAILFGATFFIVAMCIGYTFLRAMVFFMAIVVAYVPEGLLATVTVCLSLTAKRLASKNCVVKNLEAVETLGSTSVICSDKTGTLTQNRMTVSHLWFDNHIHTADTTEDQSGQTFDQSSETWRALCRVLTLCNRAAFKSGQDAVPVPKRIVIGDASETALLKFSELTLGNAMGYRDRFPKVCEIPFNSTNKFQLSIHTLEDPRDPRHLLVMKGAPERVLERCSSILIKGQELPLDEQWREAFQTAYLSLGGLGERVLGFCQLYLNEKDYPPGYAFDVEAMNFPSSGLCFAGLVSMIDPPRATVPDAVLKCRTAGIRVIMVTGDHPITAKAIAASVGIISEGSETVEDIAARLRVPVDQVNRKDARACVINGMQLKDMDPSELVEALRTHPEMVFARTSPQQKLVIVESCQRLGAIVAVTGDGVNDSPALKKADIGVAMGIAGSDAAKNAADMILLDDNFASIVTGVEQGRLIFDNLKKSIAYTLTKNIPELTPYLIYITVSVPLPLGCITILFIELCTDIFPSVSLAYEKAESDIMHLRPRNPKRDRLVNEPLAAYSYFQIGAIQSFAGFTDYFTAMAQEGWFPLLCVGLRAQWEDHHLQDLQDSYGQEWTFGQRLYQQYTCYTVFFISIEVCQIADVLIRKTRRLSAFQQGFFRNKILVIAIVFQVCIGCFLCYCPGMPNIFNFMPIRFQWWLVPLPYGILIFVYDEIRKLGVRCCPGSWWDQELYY
Sequence of H+,K+-ATPase (P51164 whole entry partner): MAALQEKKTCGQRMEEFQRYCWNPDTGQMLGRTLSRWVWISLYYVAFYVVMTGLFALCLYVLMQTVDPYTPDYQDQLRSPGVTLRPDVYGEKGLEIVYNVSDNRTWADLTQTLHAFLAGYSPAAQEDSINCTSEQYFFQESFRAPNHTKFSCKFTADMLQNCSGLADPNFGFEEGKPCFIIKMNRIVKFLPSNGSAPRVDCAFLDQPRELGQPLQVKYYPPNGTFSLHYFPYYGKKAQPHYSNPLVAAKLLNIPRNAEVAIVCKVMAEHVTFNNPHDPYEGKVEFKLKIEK
Experimental: Detennination of H^+,K^+-ATPase Activity
Membrane vesicles (2.5 to 5 μg) were incubated for 15 min at +37° C. in 18 mM Pipes/Tris buffer pH 7.4 containing 2 mM MgCl2, 10 mM KCl and 2 mM ATP. The ATPase activity was estimated as release of inorganic phosphate from ATP, as described by LeBel et al. (1978) Anal. Biochem. 85, 86-89.

[2] = tested on: isolated rabbit gastric glands; assay: Acid secretion inhibition in isolated rabbit gastric glands; type: cell-based; details: Oryctolagus cuniculus, in vitro
Experimental: Acid Secretion Inhibition in Isolated Rabbit Gastric Glands
Inhibiting effect on acid secretion in vitro in isolated rabbit gastric glands was measured as
described by Berglindh et al. (1976) Acta Physiol. Scand. 97, 401-414.

[3] = Bioavailability in the conscious dog; type: in vivo; details: plasma
Experimental: Bioavailabiity is assessed by calculating the quotient between the area under blood/plasma concentration (AUC) curve following (i) intraduodenal (i.d.) or oral (p.o.) administration and (ii) intravenous (i.v.) administration from the rat or the dog, respectively.
The area under the blood concentration vs. time curve, AUC, is determined by the log/linear trapezoidal rule and extrapolated to infinity by dividing the last determined blood concentration by the elimination rate constant in the terminal phase. The systemic bioavailability (F%) following intraduodenal or oral administration is calculated as F(%)=(AUC (p.o. or i.d.)/AUC (i.v.))×100.
(§1) Inhibition of Gastric Acid Secretion and Bioavailability in the Conscious Dog.
Blood samples for the analysis of test compound concentration in plasma are taken at intervals up to 4 h after dosing. Plasma is separated and frozen within 30 min after collection and later analyzed. The systemic bioavailability (F%) after oral or i.d. administration is calculated as described above in the rat model.

[4] = tested on: histamine-stimulated acid secretion; assay: Inhibition of histamine-stimulated gastric acid secretion in the conscious Heidenhain pouch dog; type: in vivo; details: 1-3 hours after dosing, mean n=2
Experimental: as §1
Labrador retriever or Harrier dogs of either sex are used. They are equipped with a duodenal fistula for the administration of test compounds or vehicle and a cannulated gastric fistula or a Heidenhaim-pouch for the collection of gastric secretion.
Before secretory tests the animals are fasted for about 18 h but water is freely allowed. Gastric acid secretion is stimulated for up to 6.5 h infusion of histamine dihydrochloride (12 ml/h) at a dose producing about 80 % of the individual maximal secretory response, and gastric juice collected in consecutive 30-min fractions. Test substance or vehicle is given orally, i.d. or i.v., 1 or 1.5 h after starting the histamine infusion, in a volume of 0.5 ml/kg body weight. In the case of oral administration, it should be pointed out that the test compound is administered to the acid secreting main stomach of the Heidenham-pouch dog.
The acidity of the gastric juice samples are determined by titration to pH 7.0, and the acid output calculated. The acid output in the collection periods after administration of test substance or vehicle are expressed as fractional responses, setting the acid output in the fraction preceding administration to 1.0. Percentage inhibition is calculated from fractional responses elicited by test compound and vehicle.

Row | SMILES | solubility at 24 h [1] [µM] | IC50 (H+,K+-ATPase) [nM] | IC50 [2] [nM] | bioavailability [3] [%] | mean percentage inhibition of histamine-stimulated acid secretion [4] [%]
1 | CS(=O)(=O)O.Cc1cccc(C)c1CNc1cc(C(=O)NC[C@H](C)O)cn2c(C)c(C)nc12 [8-[(2,6-dimethylbenyl)amino]-N-[(2S)-2-hydroxypropyl]-2,3-dimethylimidazo[1,2-a]pyridine-6-carboxamide mesylate salt] | 218 | – | – | – | –
2 | Cc1cccc(C)c1CNc1cc(C(=O)NCCO)cn2c(C)c(C)nc12 [8-[(2,6-dimethylbenzyl)amino]-N-(2-hydroxyethyl)-2,3-dimethylimidazo[1,2-a]pyridine-6-carboxamide, reference compound] | – | 750 | 280 | 61 | –
3 | Cc1cccc(C)c1CNc1cc(C(=O)NC[C@H](C)O)cn2c(C)c(C)nc12 [compound of the invention, 8-[(2,6-dimethylbenzyl)amino]-N-[(2S)-2-hydroxypropyl]-2,3-dimethylimidazo[1,2-a]pyridine-6-carboxamide] | 48 (≈ 18.3 µg/mL) | 690 | 260 | – | 91
